Key:
[1] = Skin temperature within intracutaneous wheals compared with skin outside the wheals during anesthesia; assay type: in vivo, humans; conditions: for T1 °C Intracutaneous Wheal / °C Difference: HCl-salt; for T1 °C Intracutaneous Wheal: center of wheal, 10 minutes after intracutaneous injection, mean of 6 wheals; for °C Difference: T1 (wheal) minus T2 (controls outside wheal), 10 minutes after injection; for change of temperature over the wheal, in words: Table 4, Conc. 0.25 %
Procedure: The means value of 6 wheals for each substance forms the basis for the values. The control values, however, represent the mean value obtained from 4 different sites measured outside the wheals 90 degrees apart and 2 centimeters from the wheal's center.
In the temperature measurements, an Oriel temperature apparatust has been used. This is battery driven and is connected to a detector (diameter, 2,5 mm) and has an accuracy of ± 0.1°C. The temperature of the skin is measured by pressing the detector against the skin with a pressure of 100 grams.
against the skin until a constant temperature is obtained.
In Table 4, T, is the measurement obtained at the center of the wheal, and T2 is the average of four measurements taken 90 degrees apart outside of the wheal and within 2 centimeters of the wheal's center.

[2] = racemate; from Aberg et al., Acta pharmacol. et toxicol. 41 (1977), Table 1 at p. 435; cited from earlier work
[3] = racemate; from Aberg et al., Acta pharmacol. et toxicol. 41 (1977), Table 1 at p. 435; cited from earlier work; remark: listed apart in the source
[4] = in vivo
Text: • ^* Trypan blue test; Hoppe et al. (1950), 39, 147-151 "Use Of Trypan Blue And Rabbit Eye Tests For Irritation", J. Amer. Pharm. Ass. (Scient. Ed.), the values are approximate threshold values of tissue irritancy. • ^** LD50, i.e. 50% mortality of mice. • ^*** Studies On The Duration Of Local Anaesthesia: Structure/Activity Relationships In A Series Of Homologous Local Anaesthetics, by G. Aberg, et al., Acta pharmacol. et toxicol., 41 (1977) pp. 432-443, Table 1 at p. 435.

in vivo = conditions: mouse, iv, read-out: LD50** I.v. (intravenous) mg/kg/mouse
[5] = test system: periphera nerve ending of the epidermis; assay: Infiltration anesthesia, intracutaneous wheals on forearms of man (pin-prick); assay type: in vivo; conditions: compared among 12 optically active and inactive structures
Procedure: By use of intracutaneous wheals it is possible to measure the analgesic effect of an anesthetic on the periphera nerve ending of the epidermis.
This technique gives information about: • (1) the duration of anesthesia. • (2) Epidermal diffusion. • (3) Vascular effects. [formula]
' Infiltration anesthesia on forearms of man. The test solutions were injected intracutaneously on the dorsum of the forearms of 12 healthy volunteers, 20-25 years old. Three wheals were made on each arm in a rotating system in a double-blind fashion. The local anesthetic effect was tested using a pin-prick technique. the "duration of anesthesia" was defined as the time during which none of six pin-pricks into the wheel was felt. The method had been described by Dhuner et al. (1972). Dhuner, K. G., D. H. Lewis, A. Nyquist, D. Selander & E. Stig: Vascular effects of the isomers of mepivacaine, Acta Anaest. Scand. 1972, Supple. 48, 45-52. • * L=Laevo, R=Racemic, D=Dextro • ** C equals grams per 100 ml of solution. • ^*** New isolated stereoisomers [formula]

ulnar volar nerves = assay: Digital nerve blocks in man (finger blockade); assay type: in vivo; conditions: compared among 12 optically active and inactive structures
Procedure: ^2 Digital nerve blocks in man. The test solutions were injected to block the ulnar volar nerves on the 2nd and 4th fingers of the same volunteers who has participated in the intracutaneous wheal tests described above. The tests were carried out in a double blind fashion in a rotating system, so that each solution was used with equal frequency on each of the blocked fingers. A total of four injections, 1.0 ml per injection, was done in each subject. One week later the procedure was repeated in the same subjects using the remaining test solutions. This method has been described by Dhuner et al. (1972) (for citation see Table 2 footnote 1). To measure the efficacy and duration of the blocks, the individual fingers were pricked rapidly 10 times with a needle algesimeter and the number of painful pricks noted. Each finger was tested every five minutes until complete recovery. The time of complete anesthesia has been called "duration of anesthesia". • ^* i.e. - the time from injection to complete analgesia • ^** i.e. - the number of successful anesthesias of total number of anesthesias performed (no anesthesia is possible if the ulnar volar nerves are not contacted by the anesthetic) • *** new isolated stereoisomers

SMILES	T1 °C Intracutaneous Wheal ([1]; Conc. 0.25 %)	°C Difference ([1]; Conc. 0.25 %)	Tissue* toxicity limits in % [4]	further results
CCCN1CCCCC1C(=O)Nc1c(C)cccc1C (racemic) [No. 3, N-n-propylpipecolic acid-2,6-xylidide]	33.1 °C	−0.1 °C		change of temperature over the wheal, in words [1]: practically no change in temperature; Tissue toxicity (tissue irritancy), in words [2]: tissue irritating; solubility in water, in words [3]: slightly soluble in water
CCCCN1CCCCC1C(=O)Nc1c(C)cccc1C (racemic) [No. 4, N-n-butylpipecolic acid-2,6-xylidide]	31.5 °C	−0.6 °C		
Cc1cccc(C)c1NC(=O)C1CCCCN1C (racemic) [compound 1]			3.5%	LD50 (in vivo): 40.3 mg/kg
CCN1CCCCC1C(=O)Nc1c(C)cccc1C (racemic) [compound 2]			3.0%	LD50 (in vivo): 21 mg/kg
CCCN1CCCCC1C(=O)Nc1c(C)cccc1C (racemic) [compound 3]			1.5%	
CCCN1CCCC[C@H]1C(=O)Nc1c(C)cccc1C [L-N-n-propylpipecolic acid-2,6-xylidide]	30.0 °C	−1.2 °C	0.75%	change of temperature over the wheal, in words [1]: lowers the temperature over its wheal to approximately the same extent as the combination of lidocaine with adrenaline; anesthetic effects, intracutaneous wheal (Table 2), in words [5]: gives the optimal increase of anesthetic effects; anesthetic effects, finger-blockade (Table 3), in words (ulnar volar nerves): gives the optimal increase of anesthetic effects
CCN1CCCC[C@@H]1C(=O)Nc1c(C)cccc1C [R-N-2-ethyl-pipecolic acid-2,6-xylidide]				T1 °C Intracutaneous Wheal ([1]; Conc. 1.0 %): 31.2 °C; °C Difference ([1]; Conc. 1.0 %): +0.5 °C

— patent publication EP0151110B1 (priority 1983, dated 1985)
